Converted amounts (≈) assume the structure as drawn. “Also recorded” adds a separate entry of the source.
Experiments:
[1] = system: Enterococcus faecalis OG1RF; test: Standard tube-dilution assay against Enterococcus faecalis; assay type: cell-based; conditions: result in words
[2] = system: S. epidermidis ATCC 35984 mature biofilms; test: Cell viability in mature (24 h) biofilms by CLSM with Live/Dead staining; assay type: cell-based, Staphylococcus epidermidis; conditions: 4 × MIC, 16 h, 24 h mature biofilm; for PI fluorescence quantity (dead cells) / SYTO9 fluorescence quantity (viable cells): Image J
Protocol: The effect of the derivatives on cell viability in mature biofilms (24 h old) was determined using the Live/Dead Bacterial Viability method (Live/Dead BacLight, Molecular Probes, USA). […] The mature biofilms were stained with SYTO 9 and propidium iodide at room temperature for 15 min, following gentle washing of the dishes with normal saline, and were observed under a Leica TCS SP5 CLSM with a 63 × 1.4-NA oil-immersion objective. Further, image analysis was performed using IMARIS 7.0.0 software (Bitplane). The fluorescence quantities of biofilm were determined using Image J software. This assay was performed in triplicate and similar results were obtained.

[3] = system: S. epidermidis ATCC 35984 biofilm formation; test: Flow-based biofilm inhibition assay (BioFlux); assay type: cell-based, Staphylococcus epidermidis; conditions: 2 × MIC; shear 0.15 dyn/cm^2; 16 h; result in words
Protocol: The microfluidic channels of BioFlux 48-well plates (Fluxion Biosciences, South San Francisco, CA, USA) were primed with pre-warmed (37°C) TSB medium from the outlet well at a shear setting of 2 dyn/cm^2 for 10 min. Overnight bacterial culture of S. epidermidis ATCC 35984 was subcultured to mid-log phase and then diluted 1:200 in MHB medium, bacteria were seeded from the outlet well into the channel and viewing window at a shear setting of 2 dyn/cm^2 for 3 s. […] Growth of the biofilms was monitored for up to 16 h. Images of different stages were automatically acquired at 10 min intervals with bright-field illumination.

YycG′ protein = molecular target: T1, YycG′ protein (Staphylococcus epidermidis, UniProt Q5HK19); test: Inhibition of YycG′ autophosphorylation (Kinase-Glo Luminescent Kinase Assay); assay type: biochemical; conditions: 4 μM ATP; for inhibition of the enzymatic activity of YycG′ protein: 100 μM derivative, 2 μg YycG′ protein; for IC50: Kinase-Glo, 2 μg YycG′, read-out: IC50 (inhibition of autophosphorylation of recombinant YycG′)
T1 construct: made in house; host or cells: E. coli BL21(DE3)
T1 sequence (Q5HK19 384-602 limits assumed): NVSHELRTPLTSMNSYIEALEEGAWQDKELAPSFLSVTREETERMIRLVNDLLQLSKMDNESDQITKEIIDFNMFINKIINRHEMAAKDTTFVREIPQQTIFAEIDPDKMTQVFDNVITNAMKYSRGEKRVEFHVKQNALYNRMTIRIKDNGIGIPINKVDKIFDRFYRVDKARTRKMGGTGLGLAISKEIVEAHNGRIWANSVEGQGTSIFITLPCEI
Protocol: The construction of the recombinant plasmid pET28a-YycG′ (containing the HATPase_c and HisKA domains of YycG) has been previously described (Liu et al., [2014]). After being used to transform E. coli strain BL21(DE3), this recombinant plasmid was induced to express YycG′ protein by 0.4 mM isopropyl-1-thio-β-D-galactopyranoside at 21°C for 12 h. Then, the bacterial cells were disrupted by sonication and centrifuged, the supernatant was purified by Ni–NTA agarose (Qiagen, Los Angeles, CA, USA). The inhibitory activities of the compound 5 derivatives on the ATPase activity of the YycG′ protein were measured using the Kinase-Glo™ Luminescent Kinase Assay (Promega, Madison, WI, USA). Briefly, 2 μg purified YycG′ protein was pre-incubated with a series of dilutions of the derivatives in reaction buffer [40 mM Tris (pH 7.5), 20 mM MgCl2 and 0.1 mg/ml BSA] at room temperature for 30 min, 4 μM ATP was added and incubated for 30 min at room temperature, then Kinase-Glo™ Reagent was added to detect the remaining amount of ATP, as reflected by luminescence intensity (RLU). In parallel, YycG′ protein with no addition of the derivatives was used as the control and ATP only was used as a blank. The rate of inhibition of protein phosphorylation (Rp) by the derivatives was calculated by the following equation: Rp = RLU(YycG^′+derivative+ATP+Kinase−Glo™)−RLU(YycG^′+ATP+Kinase−Glo™)/RLU(ATP+Kinase−Glo™)−RLU(YycG^′+ATP+Kinase−Glo™) × 100 IC50 (the concentration resulting in 50% inhibition of YycG′ protein autophosphorylation) was obtained by using Origin v7.0 software (OriginLab, Northampton, USA).

[4] = system: S. epidermidis ATCC 35984; test: MIC and MBC tube-dilution assay; assay type: cell-based; conditions: Staphylococcus epidermidis; for MBC: ATCC35984, 99.9% reduction of inoculum; for MIC: ATCC35984, MHB, 16–20 h
Protocol: (§1) The MIC assays of the derivatives of compound 5 against S. epidermidis, S. aureus, MRSA and E. coli were performed by using the methods described previously by Wiegand et al. ([2008]). In brief, two-fold serial dilutions of the derivatives were prepared in tubes containing 4 mL MHB medium, yielding final concentrations from 200 to 0.78 μM. Bacterial cultures were grown overnight and adjusted so that the bacterial suspension turbidity was equivalent to a 0.5 McFarland standard (~1 × 10^8 CFU/mL) and further diluted to 1:200 into MHB medium. The contents in the tubes were mixed thoroughly and incubated at 37°C with shaking at 220 rpm for 16–20 h. The MIC endpoint was defined as the lowest concentration at which there was no visible growth in the tubes. The MBC values were assessed by plating 100 μL samples from each negative (no visible bacterial growth) culture tube from the MIC assays onto blank MHB agar plates. After incubation at 37°C for 24 h, the bacterial colonies on the plates were counted. The MBC was the concentration at which a 99.9% reduction of the original inoculum was observed (Pridmore et al., [2011]). In this assay, all the experiments were performed three times.

E. coli ATCC 25922 = test: MIC tube-dilution assay; assay type: cell-based, Escherichia coli; conditions: E. coli ATCC29522 (head), highest concentration used 200 μM
Protocol: as §1

[5] = system: MRSA strain 226 young biofilms; test: Microtiter plate assay of 6 h young biofilms of MRSA; assay type: cell-based, S. aureus
Protocol: The biofilm-killing effect for immature (6 h old) biofilms was determined in TSB using a semi-quantitative assay. An overnight culture was diluted 1:200 into TSB medium with 0.25% glucose, and incubated in polystyrene 96-well plates at 37°C for 6 h. Biofilms were exposed to two-fold serial dilutions of the derivatives, and the plates were incubated for another 18 h at 37°C. Following the incubation and removal of non-adherent cells with 200 μl of phosphate-buffered saline, adherent biofilms were fixed with 95% methanol and stained with 2% (w/v) crystal violet. Then, the wells were washed three times with sterile distilled water and the plates were air dried for 2 h. The optical density of each well at 570 nm was determined using a 96-well plate spectrophotometer (DTX880, Beckman Coulter, USA).

[6] = Escherichia coli, ATCC 25922 / ATCC 29522

Row | Structure (SMILES) | anti-bacterial activity [1] | PI/Total (reduction of the proportion of viable cells in mature biofilms) [2] [%] | PI fluorescence quantity (dead cells) [2] | SYTO9 fluorescence quantity (viable cells) [2] | biofilm formation under shearing forces [3] | inhibition of the enzymatic activity of YycG′ protein (YycG′ protein) [%] | IC50 (YycG′ protein) [µM] | MBC [4] [µM] | MIC [4] [µM] | MIC (E. coli ATCC 25922) [µM] | MIC (E. coli ATCC 25922; [6]) [µM] | minimal biofilm-killing concentration [5] [µM]
1 | CCOC(=O)C1=C(c2ccccc2)N=c2sc(=Cc3ccc(-c4ccc(C(=O)O)cc4)o3)c(=O)n2C1c1ccc(F)cc1 (stereo not drawn) [H5-35, 2-[5-(4-carboxy-phenyl)-furan-2-ylmethylene]-5-(4-fluoro-phenyl)-3-oxo-7-phenyl-2,3-dihydro-5H-thiazolo[3,2-a]pyrimidine-6-carboxylic acid ethyl ester] | displayed anti-bacterial activities | 71.7 | 41.253 ± 5.31 | 16.283 ± 4.75 | significant decrease in the biofilm formation; also recorded: strongly inhibited biofilm formation | 63.94 | 78.2 | 12.5 (≈ 7.43 µg/mL) | 3.13 (≈ 1.86 µg/mL) | >200 | > 200 | 200
2 | CCOC(=O)C1=C(c2ccccc2)N=c2sc(=Cc3ccc(-c4ccc(C(=O)O)cc4)o3)c(=O)n2C1c1ccc(Cl)cc1 (stereo not drawn) [H5-34, 2-[5-(4-carboxy-phenyl)-furan-2-ylmethylene]-5-(4-chloro-phenyl)-3-oxo-7-phenyl-2,3-dihydro-5H-thiazolo[3,2-a]pyrimidine-6-carboxylic acid ethyl ester] | displayed anti-bacterial activities | 38.80 | 39.578 ± 4.74 | 62.165 ± 6.71 | significant decrease in the biofilm formation; also recorded: strongly inhibited biofilm formation | 80.72 | 61.9 | 25 (≈ 15.3 µg/mL) | 3.13 (≈ 1.91 µg/mL) | >200 | > 200 | 200
3 | O=C(O)c1cccc(-c2ccc(C=c3sc4n(c3=O)C(c3ccc(F)cc3)C=C(c3ccccc3)N=4)o2)c1 (stereo not drawn) [H5-33, 3-{5-[5-(4-fluoro-phenyl)-3-oxo-7-phenyl-5H-thiazolo [3,2-a]pyrimidin-2-ylidenemethyl]-furan-2-yl}-benzoic acid] | displayed anti-bacterial activities | 88.4 | 73.684 ± 5.56 | 9.669 ± 3.64 | significant decrease in the biofilm formation; also recorded: strongly inhibited biofilm formation | 77.04 | 64.9 | 12.5 (≈ 6.53 µg/mL) | 3.13 (≈ 1.64 µg/mL) | >200 | > 200 | 200
4 | CCOC(=O)C1=C(c2ccccc2)N=c2sc(=Cc3ccc(-c4cccc(C(=O)O)c4)o3)c(=O)n2C1c1ccc(F)cc1 (stereo not drawn) [H5-32, 2-[5-(3-carboxy-phenyl)-furan-2-ylmethylene]-5-(4-fluoro-phenyl)-3-oxo-7-phenyl-2,3-dihydro-5H-thiazolo[3,2-a]pyrimidine-6-carboxylic acid ethyl ester] | displayed anti-bacterial activities | 66.50 | 40.338 ± 5.03 | 20.321 ± 4.66 | significant decrease in the biofilm formation; also recorded: strongly inhibited biofilm formation | 55.61 | 83.9 | 100 (≈ 59.5 µg/mL) | 3.13 (≈ 1.86 µg/mL) | >200 | > 200 | 200
